Assay type in all cases: cell-based
The target of assay [1] is T1, PAR2 (HT-29 cells) (Homo sapiens, UniProt P55085).
T1 construct: host or cells: HT-29
T1 sequence (P55085 26-397): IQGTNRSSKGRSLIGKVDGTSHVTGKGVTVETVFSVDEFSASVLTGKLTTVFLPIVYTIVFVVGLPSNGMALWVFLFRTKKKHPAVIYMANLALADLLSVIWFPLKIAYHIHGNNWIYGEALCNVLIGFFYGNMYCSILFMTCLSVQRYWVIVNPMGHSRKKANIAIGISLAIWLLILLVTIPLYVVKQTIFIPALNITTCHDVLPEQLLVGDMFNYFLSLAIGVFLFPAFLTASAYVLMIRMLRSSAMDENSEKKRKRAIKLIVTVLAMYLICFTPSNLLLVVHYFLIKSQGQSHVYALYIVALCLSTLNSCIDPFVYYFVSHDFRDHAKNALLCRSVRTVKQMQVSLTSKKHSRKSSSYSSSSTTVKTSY
The assay is described as follows: Ca FLIPR TETRA assay, ANTAGONIST mode, activator 8 μM SLIGKV. As to conditions: HT-29 cells; activator 8 μM SLIGKV; Method A: maximal concentration of antagonist 0.1, 1 or 2 μM. A digest of the protocol:
(§1)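 Inhibition of agonist-evoked calcium signals was measured in human HT-29 colon cells cultured overnight in 1% FBS McCoy's medium. Test compounds preincubated 30 min at r.t.; activators at final concentrations as stated for each readout.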

Assay [2] concerns the target T1, PAR2 (HT-29 cells). The assay is described as follows: Ca FLIPR TETRA assay, ANTAGONIST mode, activator 3.1 U/mL trypsin. Conditions: HT-29 cells; activator 3.1 U/mL trypsin; Method A: maximal concentration of antagonist 0.1, 1 or 2 μM. A digest of the protocol:
as §1

For assay [3], the system named is Thrombin-stimulated Ca2+ response in HT-29 cells. Briefly: Ca FLIPR TETRA assay, ANTAGONIST mode, activator 1 U/mL Thrombin. Conditions: HT-29 cells, activator 1 U/mL Thrombin. In outline:
as §1

Assay [4] concerns UTP-stimulated Ca2+ response in HT-29 cells. The assay is described as follows: Ca FLIPR TETRA assay, ANTAGONIST mode, activator 0.6 μM UTP. As to conditions: HT-29 cells, activator 0.6 μM UTP. In outline:
as §1

This note sets out measurements from patent publication US20180057505A1, “BICYCLIC HETEROARYL COMPOUNDS USEFUL AS INHIBITORS OF THE PAR-2 SIGNALING PATHWAY” (VERTEX PHARMACEUTICALS INCORPORATED, priority 2015, published 2018).

As a reminder, the pIC50 is the IC50 on a negative log10 scale, so that one unit is a factor of ten.

Structures are written as SMILES. pIC50: −log10 of the molar value.

For the compound `CC1(C)CCC(c2cc(C(C)(C)C)c3oc(C(=O)N4CCNC(=O)CC4(C)C)cc3n2)CC1` [Example I-486], the negative-log IC50 (pIC50) in assay [1] is 7.38; in assay [2], 7.15; in assay [3] it was under 5.70; in assay [4] it was under 5.70.
In the case of `Cc1ccc(N2CCN(C(=O)c3cc4nc(-c5ccc(Cl)c(F)c5)cc(C(C)(C)C)c4o3)C(C)(C)C2)nc1C(=O)O` [Example I-487], the pIC50 in assay [1] is 9.70; in assay [2], 9.52; in assay [3] (Homo sapiens), under 5.70; in assay [4] (Homo sapiens), under 5.70.
On to `Cc1ccc(N2CCN(C(=O)c3cc4nc(C5CCC(C)(C)CC5)cc(C(C)(C)C)c4o3)C(C)(C)C2=O)nc1C(=O)O` [Example I-488], for which the pIC50 is 8.19 in assay [1], 7.85 in assay [2], under 5.70 in assay [3] (Homo sapiens) and under 5.70 in assay [4] (Homo sapiens).
On to `CC1(C)CCC(c2cc(C(C)(C)C)c3oc(C(=O)N4CCC(=O)NCC4(C)C)cc3n2)CC1` [Example I-489], for which the pIC50 was 6.94 in assay [1], 6.57 in assay [2], under 5.70 in assay [3] (Homo sapiens) and under 5.70 in assay [4] (Homo sapiens).
On to `CC(C)(C)c1cc(-c2ccc(Cl)c(F)c2)nc2cc(C(=O)N3CCN(c4cc(C(=O)O)ncn4)CC3(C)C)oc12` [Example I-490], for which the pIC50 in assay [1] is 8.51; in assay [2], 8.41; in assay [3] (Homo sapiens) it was under 5.70; in assay [4] (Homo sapiens) it was under 5.70.
Consider `CC(C)(C)c1cc(-c2ccc(Cl)c(F)c2)nc2cc(C(=O)N3CCN(c4ccncc4C(=O)O)CC3(C)C)oc12` [Example I-491], for which the pIC50 in assay [1] was 6.72; in assay [2], 6.64; in assay [3] (Homo sapiens), under 5.70; in assay [4] (Homo sapiens), under 5.70.
Consider `Cc1cnc(N2CCN(C(=O)c3cc4nc(-c5ccc(Cl)c(F)c5)cc(C(C)(C)C)c4o3)C(C)(C)C2)c(C(=O)O)c1` [Example I-492], for which the pIC50 in assay [1] is 8.12; in assay [2] it was 8.14; in assay [3] (Homo sapiens), under 5.70; in assay [4] (Homo sapiens), under 5.70.
For the compound `CC(C)(C)c1cc(-c2ccc(Cl)cc2)nc2cc(C(=O)N3CCN(C(=O)CC4(C(=O)O)CCCC4)CC3(C)C)oc12` [Example I-493], the negative logarithm of the IC50 (pIC50) in assay [1] is 9.40; in assay [2], 9.40; in assay [3] (Homo sapiens), under 5.70; in assay [4] (Homo sapiens), under 5.70.
As to `Cc1cc(C(=O)O)nc(N2CCN(C(=O)c3cc4nc(-c5ccc(Cl)c(F)c5)cc(C(C)(C)C)c4o3)C(C)(C)C2)c1` [Example I-494], the pIC50 was under 5.70 in assay [1], 10.00 in assay [2], under 5.70 in assay [3] (Homo sapiens) and under 5.70 in assay [4] (Homo sapiens).
For `Cc1ccc(N2CCN(C(=O)c3cc4nc(-c5ccc(Cl)cc5)cc(C(C)(C)C)c4o3)C(C)(C)C2=O)nc1C(=O)O` [Example I-495], the negative logarithm of the IC50 (pIC50) in assay [1] is 7.89; in assay [2] it was 7.82; in assay [3] (Homo sapiens), under 5.70; in assay [4] (Homo sapiens) it was under 5.70.
With `Cc1nc(N2CCN(C(=O)c3cc4nc(C5CCC(C)(C)CC5)cc(C(C)(C)C)c4o3)C(C)(C)C2)ccc1C(=O)O` [Example I-496], the negative-log IC50 (pIC50) in assay [1] was 9.40; in assay [2], 9.22; in assay [3] (Homo sapiens), under 5.70; in assay [4] (Homo sapiens) it was under 5.70.
As to `CC(C)(C)c1cc(-c2ccc(Cl)c(F)c2)nc2cc(C(=O)N3CCN(C(=O)CC4(C(=O)O)CCOCC4)CC3(C)C)oc12` [Example I-497], the pIC50 in assay [1] was 8.66; in assay [2], 8.66; in assay [3] (Homo sapiens), under 5.70; in assay [4] (Homo sapiens) it was under 5.70.
As to `COc1nc(N2CCN(C(=O)c3cc4nc(-c5ccc(Cl)c(F)c5)cc(C(C)(C)C)c4o3)C(C)(C)C2)ccc1C(=O)O` [Example I-498], the negative-log IC50 (pIC50) in assay [1] is 9.52; in assay [2] it was 9.52; in assay [3] (Homo sapiens) it was under 5.70; in assay [4] (Homo sapiens), under 5.70.
As to `CC(C)(C)c1cc(-c2ccc(Cl)cc2)nc2cc(C(=O)N3CCN(C(=O)CC4(C(=O)O)CCOCC4)CC3(C)C)oc12` [Example I-499], the negative logarithm of the IC50 (pIC50) in assay [1] is 8.44; in assay [2] it was 8.30; in assay [3] (Homo sapiens), under 5.70; in assay [4] (Homo sapiens), under 5.70.
